Values quoted from earlier work in patent publication EP2537519A1, “NEUROPATHIC PAIN ALLEVIATING AGENT” (HBC Science Laboratory Co., Ltd, priority 2010, dated 2011).

Molecular target: Cav3.2 (Homo sapiens, UniProt O95180)
Conditions: reported by Nelson et al., J Neurosci 2007

Chain of Cav3.2 (O95180 whole entry): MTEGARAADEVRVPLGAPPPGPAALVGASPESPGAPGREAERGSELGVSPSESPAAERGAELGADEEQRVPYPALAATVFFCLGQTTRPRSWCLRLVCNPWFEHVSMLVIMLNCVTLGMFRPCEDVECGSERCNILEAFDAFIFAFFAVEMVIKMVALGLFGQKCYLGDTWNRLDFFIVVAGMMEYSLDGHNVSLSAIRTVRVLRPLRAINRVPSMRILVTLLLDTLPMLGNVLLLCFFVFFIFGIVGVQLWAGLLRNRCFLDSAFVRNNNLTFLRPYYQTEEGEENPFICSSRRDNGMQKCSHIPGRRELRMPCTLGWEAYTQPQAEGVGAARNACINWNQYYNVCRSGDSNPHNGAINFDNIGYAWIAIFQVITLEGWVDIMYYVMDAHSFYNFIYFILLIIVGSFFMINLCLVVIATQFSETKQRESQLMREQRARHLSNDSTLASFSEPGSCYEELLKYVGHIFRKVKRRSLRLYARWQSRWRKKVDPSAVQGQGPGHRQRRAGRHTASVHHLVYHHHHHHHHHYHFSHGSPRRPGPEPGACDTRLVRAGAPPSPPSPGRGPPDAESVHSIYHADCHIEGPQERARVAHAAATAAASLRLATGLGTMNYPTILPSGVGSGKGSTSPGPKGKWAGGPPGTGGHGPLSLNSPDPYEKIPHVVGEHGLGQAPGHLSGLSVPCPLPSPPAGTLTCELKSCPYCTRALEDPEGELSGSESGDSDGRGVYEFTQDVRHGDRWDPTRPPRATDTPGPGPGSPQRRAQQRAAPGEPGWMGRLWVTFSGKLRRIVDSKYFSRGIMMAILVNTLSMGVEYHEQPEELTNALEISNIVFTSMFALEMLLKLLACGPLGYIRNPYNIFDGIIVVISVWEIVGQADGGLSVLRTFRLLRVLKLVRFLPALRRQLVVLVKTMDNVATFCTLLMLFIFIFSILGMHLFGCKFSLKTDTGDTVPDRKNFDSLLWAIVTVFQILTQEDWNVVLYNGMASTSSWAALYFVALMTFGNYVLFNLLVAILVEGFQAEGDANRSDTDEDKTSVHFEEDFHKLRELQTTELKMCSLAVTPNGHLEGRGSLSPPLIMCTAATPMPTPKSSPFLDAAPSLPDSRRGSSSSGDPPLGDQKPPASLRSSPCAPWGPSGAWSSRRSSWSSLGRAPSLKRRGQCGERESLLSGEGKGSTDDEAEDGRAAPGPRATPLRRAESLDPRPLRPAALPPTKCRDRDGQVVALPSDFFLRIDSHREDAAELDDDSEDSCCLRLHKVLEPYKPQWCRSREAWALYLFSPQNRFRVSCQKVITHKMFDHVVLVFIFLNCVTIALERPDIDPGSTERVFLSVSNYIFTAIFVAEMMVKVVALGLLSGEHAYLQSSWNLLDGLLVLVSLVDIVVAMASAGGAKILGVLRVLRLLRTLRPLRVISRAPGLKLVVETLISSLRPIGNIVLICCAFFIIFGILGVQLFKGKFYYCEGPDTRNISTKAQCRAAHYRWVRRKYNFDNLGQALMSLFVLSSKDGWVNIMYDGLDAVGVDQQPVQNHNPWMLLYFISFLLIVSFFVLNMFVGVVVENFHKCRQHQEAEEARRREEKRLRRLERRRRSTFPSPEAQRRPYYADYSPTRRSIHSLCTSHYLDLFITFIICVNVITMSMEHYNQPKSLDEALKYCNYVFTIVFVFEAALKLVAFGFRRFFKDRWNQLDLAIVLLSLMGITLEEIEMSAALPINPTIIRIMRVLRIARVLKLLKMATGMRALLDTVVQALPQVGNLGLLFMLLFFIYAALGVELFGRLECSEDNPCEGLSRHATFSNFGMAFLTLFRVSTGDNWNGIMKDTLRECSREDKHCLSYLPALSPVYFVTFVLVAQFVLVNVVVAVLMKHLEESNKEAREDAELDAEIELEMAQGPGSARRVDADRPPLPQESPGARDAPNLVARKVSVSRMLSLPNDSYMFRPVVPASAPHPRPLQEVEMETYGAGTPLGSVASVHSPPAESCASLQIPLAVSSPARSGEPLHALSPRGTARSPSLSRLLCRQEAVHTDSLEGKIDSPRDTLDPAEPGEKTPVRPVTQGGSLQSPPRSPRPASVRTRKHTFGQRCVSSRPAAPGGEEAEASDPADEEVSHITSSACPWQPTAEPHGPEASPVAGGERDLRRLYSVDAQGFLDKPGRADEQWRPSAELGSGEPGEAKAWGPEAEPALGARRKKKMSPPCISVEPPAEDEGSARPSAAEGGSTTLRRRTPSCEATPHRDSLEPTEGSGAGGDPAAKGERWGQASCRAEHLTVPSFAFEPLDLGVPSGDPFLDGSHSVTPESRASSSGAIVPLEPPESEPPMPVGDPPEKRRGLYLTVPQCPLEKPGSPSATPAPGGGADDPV

## O=C1O[C@H]([C@@H](O)CO)C(O)=C1O [ascorbic acid]
  inhibition of Cav3.2 among T-type Ca2+ channels: specifically inhibits
